# From patent publication US7135499B2, “Active substance combinations having insecticidal and acaricidal properties” (priority 2002, dated 2006)
# Values joined by “and” are separate entries in the source; they are usually repeats but may differ in a detail not shown here. Equal values may be shown once. Read-outs that look alike come from different tables or passages of the source.
# How the values were obtained:
# [1] = test system: caterpillars of the diamondback moth (Plutella xylostella, resistant strain); assay: Plutella test, resistant strain; assay type: in vivo
# [2] = test system: Heliothis armigera caterpillars; assay: Heliothis armigera test; assay type: in vivo; details: for pest or weed control at 0.024 ppm: read-out: Kill rate in % found, 0.024 ppm; for pest or weed control at 0.12 ppm: read-out: Kill rate in % found, 0.12 ppm; for pest or weed control at 3 ppm: read-out: Kill rate in % found, 3 ppm
# [3] = test system: caterpillars of the diamondback moth (Plutella xylostella, sensitive strain); assay: Plutella test, sensitive strain; assay type: in vivo
# [4] = test system: caterpillars of the armyworm (Spodoptera frugiperda); assay: Spodoptera frugiperda test; assay type: in vivo; details: for pest or weed control at 0.16 ppm: read-out: Kill rate in % found, 0.16 ppm; for pest or weed control at 0.6 ppm: read-out: Kill rate in % found, 0.6 ppm
# [5] = test system: cotton aphid (Aphis gossypii); assay: Aphis gossypii test; assay type: in vivo; details: after 6 d
# [6] = test system: larvae of the mustard beetle (Phaedon cochleariae); assay: Phaedon larvae test
# [7] = test system: green peach aphid (Myzus persicea); assay: Myzus test; assay type: in vivo
# [8] = test system: caterpillars of the armyworm (Spodoptera exigua); assay: Spodoptera exigua test; assay type: in vivo
# [9] = Helicoverpa armigera, 72 h, after 3 d
# [10] = Helicoverpa armigera, 144 h, after 6 d
# [11] = Spodoptera frugiperda, 72 h, after 3 d
# [12] = Spodoptera frugiperda, 144 h, after 6 d
compound,measurement,setting,value
"Cc1cc(C(F)(C(F)(F)F)C(F)(F)F)ccc1NC(=O)c1cccc(I)c1C(=O)NC(C)(C)CS(C)(=O)=O [(I), N^2-[1,1-dimethyl-2-(methylsulphonyl)ethyl]-3-iodo-N^1-{2-methyl-4-[1,2,2,2-tetrafluoro-1-(trifluoromethyl)ethyl]phenyl}phthalamide]",Kill rate in % found,"[1]; 0.0048 ppm, after 6 d",10% and 0%
same,Kill rate in % found,"[1]; 0.02 ppm, after 6 d",30%
same,Kill rate in % found,"[1]; 0.024 ppm, after 3 d",70%
same,pest or weed control at 0.024 ppm,[2]; [9],80%
same,pest or weed control at 0.1 ppm,"[2]; Helicoverpa armigera, 72 h, read-out: Kill rate in % found, 0.1 ppm, after 3 d",80%
same,pest or weed control at 0.12 ppm,[2]; [9],80%
same,pest or weed control at 0.032 ppm,"[2]; Helicoverpa armigera, 96 h, read-out: Kill rate in % found, 0.032 ppm, after 4 d",90%
same,pest or weed control at 0.024 ppm,[2]; [10],70%
same,Kill rate in % found,"[3]; 0.0048 ppm, after 3 d",0%
same,Kill rate in % found,"[3]; 0.0048 ppm, after 6 d",25%
same,Kill rate in % found,"[3]; 0.0064 ppm, after 6 d",60%
same,Kill rate in % found,"[3]; 0.024 ppm, after 3 d",55%
same,Kill rate in % found,"[3]; 0.032 ppm, after 3 d",65%
same,pest or weed control at 0.16 ppm,[4]; [11],70%
same,pest or weed control at 0.16 ppm,"[4]; Spodoptera frugiperda, 96 h, after 4 d",70%
same,pest or weed control at 0.02 ppm,"[4]; Spodoptera frugiperda, 144 h, read-out: Kill rate in % found, 0.02 ppm, after 6 d",5%
same,pest or weed control at 0.16 ppm,[4]; [12],95%
same,Kill rate in % found,[5]; 500 ppm,0%
same,Kill rate in % found,"[6]; 0.12 ppm, after 3 d",0%
same,Kill rate in % found,"[6]; 0.12 ppm, after 6 d",0%
same,Kill rate in % found,"[6]; 0.6 ppm, after 3 d",0%
same,Kill rate in % found,"[6]; 3 ppm, after 3 d",60%
same,Kill rate in % found,"[6]; 3 ppm, after 6 d",70%
same,Kill rate in % found,"[7]; 100 ppm, after 1 d",0%
same,Kill rate in % found,"[7]; 500 ppm, after 6 d",0%
same,Kill rate in % found,"[8]; 0.024 ppm, after 6 d",40%
same,Kill rate in % found,"[8]; 0.032 ppm, after 4 d",10%
same,Kill rate in % found,"[8]; 0.12 ppm, after 6 d",85%
CN/C(=N\[N+](=O)[O-])NCc1cnc(Cl)s1 [clothianidin],pest or weed control at 3 ppm,[2]; [9],10%
same,Kill rate in % found,"[7]; 0.6 ppm, after 6 d",60%
CC1(C)[C@H](C(=O)O[C@H](C#N)c2cccc(Oc3ccccc3)c2)[C@@H]1C=C(Br)Br [deltamethrin],pest or weed control at 0.0064 ppm,"[2]; Helicoverpa armigera, 96 h, read-out: Kill rate in % found, 0.0064 ppm, after 4 d",10%
same,Kill rate in % found,"[3]; 0.00128 ppm, after 6 d",40%
same,pest or weed control at 0.0064 ppm,"[4]; Spodoptera frugiperda, 96 h, read-out: Kill rate in % found, 0.0064 ppm, after 4 d",0%
same,Kill rate in % found,"[8]; 0.00128 ppm, after 4 d",0%
CN/C(=N\[N+](=O)[O-])NCC1CCOC1 (centres unmarked) [dinotefuran],pest or weed control at 3 ppm,"[4]; Spodoptera frugiperda, 72 h, read-out: Kill rate in % found, 3 ppm, after 3 d",40%
same,Kill rate in % found,"[7]; 3 ppm, after 1 d",15%
CC[S+]([O-])c1c(C#N)nn(-c2c(Cl)cc(C(F)(F)F)cc2Cl)c1N (centres unmarked) [ethiprole],pest or weed control at 20 ppm,"[4]; Spodoptera frugiperda, 144 h, read-out: Kill rate in % found, 20 ppm, after 6 d",10%
N#Cc1nn(-c2c(Cl)cc(C(F)(F)F)cc2Cl)c(N)c1[S+]([O-])C(F)(F)F (centres unmarked) [fipronil],pest or weed control at 0.12 ppm,[2]; [10],10%
same,Kill rate in % found,"[3]; 0.12 ppm, after 3 d",65%
same,pest or weed control at 0.6 ppm,[4]; [11],20%
O=C(NC(=O)c1c(F)cccc1F)Nc1ccc(Oc2ccc(C(F)(F)F)cc2Cl)cc1F [flufenoxuron],Kill rate in % found,"[1]; 0.12 ppm, after 6 d",40%
same,pest or weed control at 0.12 ppm,[2]; [10],15%
same,Kill rate in % found,"[3]; 0.12 ppm, after 3 d",0%
same,Kill rate in % found,"[6]; 3 ppm, after 3 d",0%
same,Kill rate in % found,"[8]; 0.6 ppm, after 3 d",0%
COC(=O)N(C(=O)N1COC2(C(=O)OC)Cc3cc(Cl)ccc3C2=N1)c1ccc(OC(F)(F)F)cc1 (centres unmarked) [indoxacarb],Kill rate in % found,"[1]; 0.12 ppm, after 6 d",50%
same,pest or weed control at 0.024 ppm,[2]; [10],0%
same,Kill rate in % found,"[3]; 0.024 ppm, after 3 d",0%
same,pest or weed control at 0.6 ppm,[4]; [11],60%
same,Kill rate in % found,"[6]; 0.6 ppm, after 3 d",35%
same,Kill rate in % found,"[8]; 0.6 ppm, after 3 d",20%
COc1cccc(C(=O)NN(C(=O)c2cc(C)cc(C)c2)C(C)(C)C)c1C [methoxyfenozide],Kill rate in % found,"[1]; 0.6 ppm, after 6 d",0%
same,pest or weed control at 3 ppm,[2]; [9],50%
same,pest or weed control at 0.6 ppm,[4]; [12],5%
N#C/N=C1\SCCN1Cc1ccc(Cl)nc1 [thiacloprid],Kill rate in % found,"[1]; 3 ppm, after 3 d",5%
same,Kill rate in % found,[5]; 3 ppm,50%
same,Kill rate in % found,"[6]; 15 ppm, after 6 d",85%
same,Kill rate in % found,"[7]; 3 ppm, after 6 d",60%
CN1COCN(Cc2cnc(Cl)s2)/C1=N/[N+](=O)[O-] [thiamethoxam],Kill rate in % found,"[1]; 3 ppm, after 6 d",0%
same,Kill rate in % found,"[6]; 15 ppm, after 3 d",85%
same,Kill rate in % found,"[7]; 0.6 ppm, after 1 d",85%
O=C(NC(=O)c1ccccc1Cl)Nc1ccc(OC(F)(F)F)cc1 [triflumuron],Kill rate in % found,"[1]; 3 ppm, after 6 d",0%
same,pest or weed control at 15 ppm,"[2]; Helicoverpa armigera, 72 h, read-out: Kill rate in % found, 15 ppm, after 3 d",0%
same,Kill rate in % found,"[3]; 0.6 ppm, after 3 d",0%
same,pest or weed control at 0.12 ppm,"[4]; Spodoptera frugiperda, 72 h, read-out: Kill rate in % found, 0.12 ppm, after 3 d",5%
same,Kill rate in % found,"[6]; 0.6 ppm, after 6 d",0%
same,Kill rate in % found,"[8]; 15 ppm, after 3 d",15%
abamectin,Kill rate in % found,"[2]; 0.0048 ppm, after 6 d",30%
same,Kill rate in % found,"[3]; 0.00096 ppm, after 3 d",35%
same,Kill rate in % found,"[4]; 3 ppm, after 3 d",25%
same,Kill rate in % found,"[6]; 0.12 ppm, after 3 d",25%
same,Kill rate in % found,"[8]; 3 ppm, after 6 d",70%
emamectin-benzoate,Kill rate in % found,"[1]; 0.00024 ppm, after 6 d",15%
same,Kill rate in % found,"[2]; 0.00024 ppm, after 6 d",0%
same,Kill rate in % found,"[3]; 0.00024 ppm, after 6 d",10%
same,Kill rate in % found,"[4]; 0.006 ppm, after 3 d",70%
same,Kill rate in % found,"[6]; 0.006 ppm, after 6 d",10%
same,Kill rate in % found,"[8]; 0.0012 ppm, after 6 d",20%
spinosad,Kill rate in % found,"[3]; 0.0064 ppm, after 3 d",5%
same,Kill rate in % found,"[4]; 0.032 ppm, after 3 d",35%
